In article PMC8318836 (Bioorganic Chemistry, 2021):

How the values were obtained:
SARS-CoV-2 pseudovirus [1] = type: cell-based; settings: for EC50: read-out: EC50-SARS-CoV-2
VSV G pseudovirus = type: cell-based, vesicular stomatitis virus (VSV); settings: read-out: EC50-VSV
Huh 7 cells = settings: concentration of 50% cellular toxicity in Huh 7 cells
SARS-CoV-2 pseudovirus [2] = test: Single-cycle time-of-addition experiment on SARS-CoV-2 pseudovirus; type: cell-based; settings: 25 µM, Huh 7 cells

Row | Compound | EC50 (SARS-CoV-2 pseudovirus [1]) | EC50 (VSV G pseudovirus) | CC50 (Huh 7 cells) | anti-SARS-CoV-2 activity compared to lead 1 (SARS-CoV-2 pseudovirus [1]) | inhibition rate, process d (SARS-CoV-2 pseudovirus [2]; added 1 h post infection) | inhibition rate, process b (SARS-CoV-2 pseudovirus [2]; added during pseudovirus infection at 0 °C) | inhibition rate, process a (SARS-CoV-2 pseudovirus [2]; added during pseudovirus infection at 37 °C)
1 | Cc1cc(C)cc(NCC(=O)N2CCCC3=CC4CC(CN5CCCCC45)C32)c1 (stereo not shown) [14m, 12N-N′-(3,5-Dimethylphenylamino)acetyl aloperine] | > 267 µM | > 267 µM | > 267 µM | – | – | – | –
2 | O=C(CN1CCCC2=CC3CC(C4CCCCN4C3)C21)Nc1cc(Br)ccc1Cl (stereo not shown) [11g, 12N-N′-(5-Bromo-2-chlorophenyl)carbamoylmethyl aloperine] | 90.3 µM | 77.5 µM | > 267 µM | – | – | – | –
3 | O=C(CNc1ccc(Cl)c(Cl)c1)N1CCCC2=CC3CC(C4CCCCN4C3)C21 (stereo not shown) [14l, 12N-N′-(3,4-Dichlorophenylamino)acetyl aloperine] | 15.8 µM | 35.9 µM | 63 µM | – | – | – | –
4 | Cc1ccc(NC(=O)CN2CCCC3=CC4CC(CN5CCCCC45)C32)cc1C (stereo not shown) [11n, 12N-N′-(3,4-Dimethylphenyl)carbamoylmethyl aloperine] | 70.8 µM | 108 µM | > 267 µM | – | – | – | –
5 | O=C(CN1CCCC2=CC3CC(C4CCCCN4C3)C21)Nc1ccc(Cl)cc1Cl (stereo not shown) [11d, 12N-N′-(2,4-Dichlorophenyl)carbamoylmethyl aloperine] | 54.8 µM | 70.5 µM | 167 µM | – | – | – | –
6 | O=C(CNc1cc(C(F)(F)F)cc(C(F)(F)F)c1)N1CCCC2=CC3CC(CN4CCCCC34)C21 (stereo not shown) [14o, 12N-N′-(3,5-Ditrifluoromethylphenylamino)acetyl aloperine] | 37.6 µM | 48.3 µM | 113 µM | – | – | – | –
7 | O=C(Nc1cc(C(F)(F)F)cc(C(F)(F)F)c1)N1CCCC2=CC3CC(CN4CCCCC34)C21 (stereo not shown) [15c, 12N-N′-(3,5-Ditrifluoromethylphenyl)carbamoyl aloperine] | 11.5 µM | 14.9 µM | 53.9 µM | – | – | – | –
8 | O=C(CN1CCCC2=CC3CC(CN4CCCCC34)C21)Nc1ccc(I)cc1 (stereo not shown) [11c, 12N-N′-p-Iodophenylcarbamoylmethyl aloperine] | 29.5 µM | 47.8 µM | 124 µM | – | – | – | –
9 | O=C(CNc1ccc(Br)cc1)N1CCCC2=CC3CC(CN4CCCCC34)C21 (stereo not shown) [14e, 12N-N′-p-Bromophenylaminoacetyl aloperine] | 37.3 µM | 85.4 µM | 180 µM | – | – | – | –
10 | Cc1cc(Cl)ccc1NC(=O)CN1CCCC2=CC3CC(C4CCCCN4C3)C21 (stereo not shown) [11j, 12N-N′-(4-Chloro-2-methylphenyl)carbamoylmethyl aloperine] | 107 µM | 75.1 µM | > 267 µM | – | – | – | –
11 | COc1cccc(NCC(=O)N2CCCC3=CC4CC(C5CCCCN5C4)C32)c1 (stereo not shown) [14i, 12N-N′-m-Methoxyphenylaminoacetyl aloperine] | > 267 µM | > 267 µM | > 267 µM | – | – | – | –
12 | O=C(CNc1ccc(Cl)cc1Cl)N1CCCC2=CC3CC(CN4CCCCC34)C21 (stereo not shown) [14k, 12N-N′-(2,4-Dichlorophenylamino)acetyl aloperine] | 17.8 µM | 36.2 µM | 65.8 µM | – | – | – | –
13 | O=C(CNc1cccc(C(F)(F)F)c1)N1CCCC2=CC3CC(CN4CCCCC34)C21 (stereo not shown) [14h, 12N-N′-m-Trifluoromethylphenylaminoacetyl aloperine] | 69.2 µM | 134 µM | > 267 µM | – | – | – | –
14 | O=C(CNc1ccccc1)N1CCCC2=CC3CC(CN4CCCCC34)C21 (stereo not shown) [14a, 12N-N′-Phenylaminoacetyl aloperine] | > 267 µM | > 267 µM | > 267 µM | – | – | – | –
15 | O=C(CN1CCCC2=CC3CC(C4CCCCN4C3)C21)Nc1cc(Cl)cc(C(F)(F)F)c1 (stereo not shown) [11k, 12N-N′-(3-Chloro-5-trifluoromethylphenyl)carbamoylmethyl aloperine] | 10.4 µM | 17.5 µM | 57.1 µM | slightly elevated activity | – | – | –
16 | O=C(CNc1ccc2ccccc2c1)N1CCCC2=CC3CC(CN4CCCCC34)C21 (stereo not shown) [14q, 12N-N′-(2-Naphthylamino)acetyl aloperine] | 87.2 µM | 108 µM | 224 µM | – | – | – | –
17 | O=C(CNc1ccc(Cl)cc1)N1CCCC2=CC3CC(CN4CCCCC34)C21 (stereo not shown) [14d, 12N-N′-p-Chlorophenylaminoacetyl aloperine] | 61.3 µM | 163 µM | > 267 µM | – | – | – | –
18 | O=C(CN1CCCC2=CC3CC(CN4CCCCC34)C21)Nc1cc(C(F)(F)F)cc(C(F)(F)F)c1 (stereo not shown) [11o, 12N-N′-(3,5-Ditrifluoromethylphenyl)carbamoylmethyl aloperine] | 17 µM | 21.9 µM | 71 µM | – | – | – | –
19 | O=C(CNc1ccc(F)cc1)N1CCCC2=CC3CC(CN4CCCCC34)C21 (stereo not shown) [14b, 12N-N′-p-Fluorophenylaminoacetyl aloperine] | 177 µM | > 267 µM | > 267 µM | – | – | – | –
20 | COc1cc(NCC(=O)N2CCCC3=CC4CC(CN5CCCCC45)C32)cc(OC)c1 (stereo not shown) [14n, 12N-N′-(3,5-Dimethoxyphenylamino)acetyl aloperine] | > 267 µM | > 267 µM | > 267 µM | – | – | – | –
21 | O=C(CNc1cccc2ccccc12)N1CCCC2=CC3CC(C4CCCCN4C3)C21 (stereo not shown) [14p, 12 N-N′-(1-Naphthylamino)acetyl aloperine] | 73.6 µM | 125 µM | 199 µM | – | – | – | –
22 | O=C(Nc1ccc(F)cc1F)N1CCCC2=CC3CC(CN4CCCCC34)C21 (stereo not shown) [15a, 12N-N′-(2,4-Difluorophenyl)carbamoyl aloperine] | 195 µM | 139 µM | > 267 µM | – | – | – | –
23 | O=C(CN1CCCC2=CC3CC(CN4CCCCC34)C21)Nc1ccc2ccccc2n1 (stereo not shown) [11q, 12N-N′-(2-Quinolyl)carbamoylmethyl aloperine] | 67.4 µM | 120 µM | > 267 µM | – | – | – | –
24 | CCCNC(=O)[C@H]1O[C@@H]1C(=O)N[C@H](C(=O)N1CCC[C@H]1C(=O)O)[C@@H](C)CC [CA-074, reference compound] | 2.7 µM | 10.5 µM | 231 µM | – | 93% | 77% | 87%
25 | O=C(CN1CCCC2=CC3CC(C4CCCCN4C3)C21)Nc1ccc2ccccc2c1 (stereo not shown) [11p, 12N-N′-(2-Naphthyl)carbamoylmethyl aloperine] | 37.1 µM | 43.5 µM | 96.7 µM | – | – | – | –
